Experimental data reported in paper PMC8286840, “Identifying SARS-CoV-2 antiviral compounds by screening for small molecule inhibitors of Nsp3 papain-like protease” (Biochemical Journal, 2021).
Structures can show the parent of a compound that is named as a salt. Where two headings read alike, the source gives them in different places.

Legend:
[1] = molecular target: T1, SARS-CoV-2 PLpro (nsp3 1564–1878) (Severe acute respiratory syndrome coronavirus 2, UniProt P0DTD1); assay: biochemical; parameters: FRET-quenched peptide (Pro3) cleavage by PLpro, 10 min pre-incubation, slope over 20 min, normalised to no-compound control; conditions: low concentration screen, read-out: % of control remaining
[2] = molecular target: T1, SARS-CoV-2 PLpro (nsp3 1564–1878); assay: biochemical; parameters: FRET-quenched peptide (Pro3) cleavage by PLpro, 10 min pre-incubation, slope over 20 min, normalised to no-compound control; conditions: high concentration screen, read-out: % of control remaining

What does the source list for Cc1cn2cc(C(=O)N(C)CCO)cc(N[C@@H]3CCOc4cccc(C)c43)c2n1 [PF-03716556]?
remaining activity at 1.25 µM ([1]; Well no.=6006): 97.5%; remaining activity at 3.75 µM ([2]; Well no.=6006): 96%

CCCCCCCCCCCCCCCC(=O)Nc1ccn([C@@H]2O[C@H](CO)[C@@H](O)[C@@H]2C#N)c(=O)n1 [Sapacitabine] was tested. Which remaining activity at 1.25 µM ([1]; Well no.=7908) did it give?
Its remaining activity at 1.25 µM is 98.8%.

And the remaining activity at 3.75 µM ([2]; Well no.=7908)?
The remaining activity at 3.75 µM was 102%.

What does the source list for CCOC(=O)[C@H](CCc1ccccc1)N[C@@H](C)C(=O)N1Cc2ccccc2C[C@H]1C(=O)O [Quinapril (hydrochloride)]?
remaining activity at 1.25 µM ([1]; Well no.=7828): 96.3%; remaining activity at 3.75 µM ([2]; Well no.=7828): 95%

With CN(C(=O)c1c(O)c2ccccc2n(C)c1=O)c1ccccc1 [Roquinimex] as the compound, how does the remaining activity at 1.25 µM ([1]; Well no.=6160) read?
The remaining activity at 1.25 µM was 103%.

What about the remaining activity at 3.75 µM ([2]; Well no.=6160) of the same compound?
The remaining activity at 3.75 µM was 96.9%.

For CC(C)[C@H](O)C(=O)N[C@@H](C)C(=O)N[C@@H]1C(=O)N(C)CCc2ccccc21 [Semagacestat (LY450139)], which remaining activity at 1.25 µM ([1]; Well no.=4614) is on record?
The remaining activity at 1.25 µM was 102%.

And the remaining activity at 3.75 µM ([2]; Well no.=4614)?
The remaining activity at 3.75 µM was 101%.

Which remaining activity at 1.25 µM ([1]; Well no.=2884) does the source give for O=C(Nc1c[nH]nc1-c1nc2ccc(CN3CCOCC3)cc2[nH]1)NC1CC1 [AT9283] here?
Its remaining activity at 1.25 µM is 93.2%.

What about the remaining activity at 3.75 µM ([2]; Well no.=2884) of the same compound?
The remaining activity at 3.75 µM was 95.8%.

How did the remaining activity at 1.25 µM ([1]; Well no.=3894) turn out when CN(C/C=C/C#CC(C)(C)C)Cc1cccc2ccccc12 was run?
Its remaining activity at 1.25 µM is 102%.

And the remaining activity at 3.75 µM ([2]; Well no.=3894)?
Its remaining activity at 3.75 µM is 103%.

How did the remaining activity at 1.25 µM ([1]; Well no.=7112) turn out when C[C@H](CCC(=O)NCCS(=O)(=O)O)[C@H]1CC[C@H]2[C@@H]3[C@@H](O)C[C@@H]4C[C@H](O)CC[C@]4(C)[C@H]3CC[C@]12C [Tauroursodeoxycholate dihydrate] was run?
The remaining activity at 1.25 µM was 95.4%.

What about the remaining activity at 3.75 µM ([2]; Well no.=7112) of the same compound?
Its remaining activity at 3.75 µM is 93.5%.

What does the source list for CNCC(O)c1ccc(O)c(O)c1 (racemic) [DL-Adrenaline]?
remaining activity at 1.25 µM ([1]; Well no.=5278): 96.6%; remaining activity at 3.75 µM ([2]; Well no.=5278): 94.3%

How did the remaining activity at 1.25 µM ([1]; Well no.=3739) turn out when CC1(C)CCC[C@](C)([C@H]2CC[C@]3(C)[C@@H]2[C@H](O)C[C@@H]2[C@@]4(C)CC[C@H](O)C(C)(C)[C@@H]4CC[C@]23C)O1 [Panaxadiol] was run?
Its remaining activity at 1.25 µM is 100%.

And the remaining activity at 3.75 µM ([2]; Well no.=3739)?
Its remaining activity at 3.75 µM is 99.1%.

CC(C)(C)Cn1c(N)nc2ccc(-c3[nH]c(C(C)(C)C)nc3-c3ccc(F)cc3)nc21 [LY2228820] was tested. Which remaining activity at 1.25 µM ([1]; Well no.=4915) did it give?
Its remaining activity at 1.25 µM is 98.6%.

What about the remaining activity at 3.75 µM ([2]; Well no.=4915) of the same compound?
Its remaining activity at 3.75 µM is 99.6%.

With CNCCCC12CCC(c3ccccc31)c1ccccc12 [Maprotiline.HCl] as the compound, how does the remaining activity at 1.25 µM ([1]; Well no.=1787) read?
Its remaining activity at 1.25 µM is 95.1%.

What about the remaining activity at 3.75 µM ([2]; Well no.=1787) of the same compound?
The remaining activity at 3.75 µM was 96.8%.

Which results are given for CCCCCCCCCCC/C=C\CCCCC(=O)O [6(Z)-Octadecenoic acid]?
remaining activity at 1.25 µM ([1]; Well no.=4316): 103%; remaining activity at 3.75 µM ([2]; Well no.=4316): 98.8%

Which results are given for CC(=O)O[C@]1(C(C)=O)CC[C@H]2[C@@H]3C=C(Cl)C4=CC(=O)CC[C@]4(C)[C@H]3CC[C@@]21C [Chlormadinone Acetate]?
remaining activity at 1.25 µM ([1]; Well no.=2225): 97.4%; remaining activity at 3.75 µM ([2]; Well no.=2225): 96.7%

What does the source list for C[C@H](O)[C@H](O)[C@H]1CNc2nc(N)[nH]c(=O)c2N1 [Tetrahydrobiopterin]?
remaining activity at 1.25 µM ([1]; Well no.=6159): 108%; remaining activity at 3.75 µM ([2]; Well no.=6159): 109%

With O=c1cc(N2CCOCC2)oc2c(-c3cccc4c3sc3ccccc34)cccc12 [NU7441 (KU-57788)] as the compound, how does the remaining activity at 1.25 µM ([1]; Well no.=4926) read?
The remaining activity at 1.25 µM was 99.2%.

What about the remaining activity at 3.75 µM ([2]; Well no.=4926) of the same compound?
Its remaining activity at 3.75 µM is 94.3%.

Which results are given for CCCC[S+]([O-])c1sc2nc(-c3cccs3)cc(-c3ccccc3)c2c1N (stereo not shown) [SW033291]?
remaining activity at 1.25 µM ([1]; Well no.=8674): 101%; remaining activity at 3.75 µM ([2]; Well no.=8674): 97.5%

Which results are given for CC(=O)OCC(=O)[C@@]1(O)CC[C@H]2[C@@H]3CCC4=CC(=O)CC[C@]4(C)[C@H]3C(=O)C[C@@]21C [Cortisone (acetate)]?
remaining activity at 1.25 µM ([1]; Well no.=6321): 106%; remaining activity at 3.75 µM ([2]; Well no.=6321): 105%

With CC(CN1c2ccccc2Sc2ccccc21)N(C)C (stereo not shown) [Promethazine.HCl] as the compound, how does the remaining activity at 1.25 µM ([1]; Well no.=1640) read?
Its remaining activity at 1.25 µM is 96.2%.

What about the remaining activity at 3.75 µM ([2]; Well no.=1640) of the same compound?
Its remaining activity at 3.75 µM is 97.2%.

With CC[C@@H]1/C=C/C=C/C[C@H](C)[C@H](O)[C@](C)(O)C(=O)[C@H](C)[C@@H](O)[C@H](C)C(=O)[C@H](C)[C@@H](O)[C@H](C)/C=C/C(=O)O[C@H]2[C@@H](C)[C@@H](CC1)O[C@@]1(CC[C@@H](C)[C@@H](C[C@H](C)O)O1)[C@@H]2C [Oligomycin A] as the compound, how does the remaining activity at 1.25 µM ([1]; Well no.=850) read?
Its remaining activity at 1.25 µM is 105%.

What about the remaining activity at 1.25 µM ([1]; Well no.=3423) of the same compound?
The remaining activity at 1.25 µM was 98.1%.

And the remaining activity at 3.75 µM ([2]; Well no.=850)?
The remaining activity at 3.75 µM was 103%.

What about the remaining activity at 3.75 µM ([2]; Well no.=3423) of the same compound?
The remaining activity at 3.75 µM was 96.5%.

For Cc1cnc(Nc2ccc(OCCN3CCCC3)cc2)nc1Nc1cccc(S(=O)(=O)NC(C)(C)C)c1 [TG101348], which remaining activity at 1.25 µM ([1]; Well no.=2853) is on record?
Its remaining activity at 1.25 µM is 95.4%.

What about the remaining activity at 3.75 µM ([2]; Well no.=2853) of the same compound?
The remaining activity at 3.75 µM was 98.3%.

What does the source list for NCCCNCCS [WR-1065 dihydrochloride]?
remaining activity at 1.25 µM ([1]; Well no.=6786): 94.6%; remaining activity at 3.75 µM ([2]; Well no.=6786): 94.3%

Which results are given for CCCN(CCc1cccs1)[C@H]1CCc2c(O)cccc2C1 [Rotigotine (Hydrochloride)]?
remaining activity at 1.25 µM ([1]; Well no.=8157): 96.4%; remaining activity at 3.75 µM ([2]; Well no.=8157): 89.4%

With CN[C@@H](C)C(=O)N[C@H](C(=O)N1CCC[C@H]1C(=O)N[C@H]1c2ccccc2C[C@H]1OCC#CC#CCO[C@@H]1Cc2ccccc2[C@@H]1NC(=O)[C@@H]1CCCN1C(=O)[C@@H](NC(=O)[C@H](C)NC)C1CCCCC1)C1CCCCC1 [AZD5582] as the compound, how does the remaining activity at 1.25 µM ([1]; Well no.=6358) read?
The remaining activity at 1.25 µM was 102%.

What about the remaining activity at 1.25 µM ([1]; Well no.=8416) of the same compound?
Its remaining activity at 1.25 µM is 98.4%.

And the remaining activity at 3.75 µM ([2]; Well no.=6358)?
Its remaining activity at 3.75 µM is 101%.

And the remaining activity at 3.75 µM ([2]; Well no.=8416)?
Its remaining activity at 3.75 µM is 93.5%.

What does the source list for CN1[C@@H]2CCC[C@H]1C[C@@H](NC(=O)c1nn(C)c3ccccc13)C2 [Granisetron]?
remaining activity at 1.25 µM ([1]; Well no.=1910): 93.3%; remaining activity at 3.75 µM ([2]; Well no.=1910): 91.6%

Nc1ccc(S(=O)(=O)Nc2ccnn2-c2ccccc2)cc1 [Sulfaphenazole] was tested. Which remaining activity at 1.25 µM ([1]; Well no.=1404) did it give?
Its remaining activity at 1.25 µM is 104%.

And the remaining activity at 1.25 µM ([1]; Well no.=8418)?
The remaining activity at 1.25 µM was 85.5%.

And the remaining activity at 3.75 µM ([2]; Well no.=1404)?
Its remaining activity at 3.75 µM is 99.3%.

What about the remaining activity at 3.75 µM ([2]; Well no.=8418) of the same compound?
The remaining activity at 3.75 µM was 85.2%.

Which results are given for CC(C)(CO)Cc1cc(C(C)(C)C)c(O)c(C(C)(C)C)c1 [CGP-7930]?
remaining activity at 1.25 µM ([1]; Well no.=43): 101%; remaining activity at 3.75 µM ([2]; Well no.=43): 102%

For CC(=O)c1c(O)c(C)c(O)c(Cc2c(O)c3c(c(C(=O)/C=C/c4ccccc4)c2O)OC(C)(C)C=C3)c1O [Rottlerin], which remaining activity at 1.25 µM ([1]; Well no.=1206) is on record?
The remaining activity at 1.25 µM was 103%.

And the remaining activity at 3.75 µM ([2]; Well no.=1206)?
Its remaining activity at 3.75 µM is 102%.

For CC#CCOC(=O)c1c(C)nc2sc3c(c2c1N)CCC(O)C3 (stereo not shown) [SB 205384], which remaining activity at 1.25 µM ([1]; Well no.=1508) is on record?
The remaining activity at 1.25 µM was 97.4%.

What about the remaining activity at 3.75 µM ([2]; Well no.=1508) of the same compound?
Its remaining activity at 3.75 µM is 96.2%.

CC(=O)O[C@H]1C(=O)[C@@]2(C)[C@H]([C@H](OC(=O)c3ccccc3)[C@]3(O)C[C@H](O)C(C)=C1C3(C)C)[C@]1(OC(C)=O)CO[C@@H]1C[C@@H]2O [Baccatin III] was tested. Which remaining activity at 1.25 µM ([1]; Well no.=3099) did it give?
The remaining activity at 1.25 µM was 97.9%.

And the remaining activity at 3.75 µM ([2]; Well no.=3099)?
Its remaining activity at 3.75 µM is 99.5%.

c1ccc2c(-c3ccncc3)c[nH]c2c1 [Rho Kinase Inhibitor III, Rockout] was tested. Which remaining activity at 1.25 µM ([1]; Well no.=2557) did it give?
The remaining activity at 1.25 µM was 101%.

What about the remaining activity at 3.75 µM ([2]; Well no.=2557) of the same compound?
Its remaining activity at 3.75 µM is 103%.

How did the remaining activity at 1.25 µM ([1]; Well no.=3300) turn out when COc1ccc(/C=C/c2cc(O)cc(O[C@@H]3O[C@H](CO)[C@@H](O)[C@H](O)[C@H]3O)c2)cc1O [Rhapontin] was run?
The remaining activity at 1.25 µM was 102%.

And the remaining activity at 3.75 µM ([2]; Well no.=3300)?
Its remaining activity at 3.75 µM is 101%.
